Data as given in patent publication US11066393B2, “Indolin-2-one derivatives” (Hoffmann-La Roche Inc., priority 2015, dated 2021).

Each molecule was assayed against T1, mouse ENT-1 transporter (Mus musculus, UniProt Q9JIM1) (assay: Adenosine transport activity (ENT1, [3H]-adenosine uptake)). Settings: stable cells expressing mouse ENT-1; [2,8-3H]-adenosine 6 nM, 20 min.
T1 construct: expressed in transfected cells
T1 sequence (Q9JIM1 1-460): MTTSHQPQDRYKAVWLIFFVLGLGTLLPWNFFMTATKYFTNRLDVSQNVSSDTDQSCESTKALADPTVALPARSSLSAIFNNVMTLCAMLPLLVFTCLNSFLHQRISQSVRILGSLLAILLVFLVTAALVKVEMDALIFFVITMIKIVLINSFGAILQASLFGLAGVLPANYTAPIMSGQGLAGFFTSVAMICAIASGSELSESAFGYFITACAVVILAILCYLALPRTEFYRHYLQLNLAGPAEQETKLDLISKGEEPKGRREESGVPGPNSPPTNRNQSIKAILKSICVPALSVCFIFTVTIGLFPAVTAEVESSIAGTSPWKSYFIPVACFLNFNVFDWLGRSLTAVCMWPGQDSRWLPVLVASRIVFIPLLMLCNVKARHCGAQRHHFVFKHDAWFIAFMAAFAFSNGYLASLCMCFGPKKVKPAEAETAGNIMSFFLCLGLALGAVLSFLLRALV
Type: cell-based
Procedure: To measure adenosine transport activity of ENT-1 mammalian cells, stable cells expressing the mouse ENT-1 transporter were plated on day 1 in 96-well culture plates at the density of 60,000 cells/well, in complete DMEM/F12 medium supplemented with glutamax, 10% FBS and 10 μg/ml puromycin. On day 2, the medium was aspirated and the cells were washed twice with uptake buffer (10 mM Hepes-Tris, pH 7.4 containing 150 mM NaCl, 1 mM CaCl2, 2.5 mM KCl, 2.5 mM MgSO4, 10 mM D-glucose) (UB). For inhibition experiments, cells were then incubated at RT with various concentrations of compounds with 1% DMSO final. Non-specific uptake was defined in the presence of 10 μM S-(4-Nitrobenzyl)-6-thioinosine (NBTI, Sigma Cat #N2255).
A solution containing [2,8-^3H]-adenosine 6 nM (40 Ci/mmol, American Radiolabeled chemicals Inc, Cat #ART 0287A) was then immediately added to the wells. The plates were then incubated for 20 min with gentle shaking and the reaction was stopped by aspiration of the mixture and washing (three times) with ice-cold UB. The cells were lysed by the addition of scintillation liquid, shaken 3 hours and the radioactivity in the cells was estimated using a microplates scintillation counter (TopCount NXT, Packard).

IC50 [nM]	Molecule
129	Cc1ncc(-c2ccc3c(c2)N(c2cncc(C(=O)NC4CCC4)n2)C(=O)C3(C)C)cn1 [Example 42, N-Cyclobutyl-6-(3,3-dimethyl-6-(2-methylpyrimidin-5-yl)-2-oxoindolin-1-yl)pyrazine-2-carboxamide]
46.9	Cc1ncc(-c2ccc3c(c2)N(c2cn(C)c(C(=O)N(C)C)n2)C(=O)C3(C)C)cn1 [Example 46, 4-(3,3-Dimethyl-6-(2-methylpyrimidin-5-yl)-2-oxoindolin-1-yl)-N,N,1-trimethyl-1H-imidazole-2-carboxamide]
186	COCCN(C)C(=O)c1cnc(N2C(=O)C(C)(C)c3ccc(-c4cnc(C)nc4)cc32)cn1 [Example 14, 5-(3,3-Dimethyl-6-(2-methylpyrimidin-5-yl)-2-oxoindolin-1-yl)-N-(2-methoxyethyl)-N-methylpyrazine-2-carboxamide]
477	Cc1ncc(-c2ccc3c(c2)N(c2cncc(C(=O)NCC(F)(F)F)c2)C(=O)C3(C)C)cn1 [Example 32, 5-(3,3-Dimethyl-6-(2-methylpyrimidin-5-yl)-2-oxoindolin-1-yl)-N-(2,2,2-trifluoroethyl)nicotinamide]
668	Cc1ncc(-c2ccc3c(c2)N(c2ccc4c(c2)C(=O)N(C)C4)C(=O)C3(C)C)cn1 [Example 37, 3,3-Dimethyl-1-(2-methyl-3-oxoisoindolin-5-yl)-6-(2-methylpyrimidin-5-yl)indolin-2-one]
637	Cc1ncc(-c2ccc3c(c2)N(c2cnc4c(c2)C(=O)N(C)C4)C(=O)C3(C)C)cn1 [Example 36, 3-(3,3-Dimethyl-6-(2-methylpyrimidin-5-yl)-2-oxoindolin-1-yl)-6-methyl-6,7-dihydro-5H-pyrrolo[3,4-b]pyridin-5-one]
202	Cc1ncc(-c2ccc3c(c2)N(c2cncc(C(=O)N4CCC4)c2)C(=O)C3(C)C)cn1 [Example 31, 1-(5-(Azetidine-1-carbonyl)pyridin-3-yl)-3,3-dimethyl-6-(2-methylpyrimidin-5-yl)indolin-2-one]
243	Cc1ncc(-c2ccc3c(c2)N(c2cncc(C(=O)NC(C)(C)C)n2)C(=O)C3(C)C)cn1 [Example 44, N-(tert-Butyl)-6-(3,3-dimethyl-6-(2-methylpyrimidin-5-yl)-2-oxoindolin-1-yl)pyrazine-2-carboxamide]
382	COCCN(C)C(=O)c1cncc(N2C(=O)C(C)(C)c3ccc(-c4cnc(C)nc4)cc32)n1 [Example 5, 6-(3,3-Dimethyl-6-(2-methylpyrimidin-5-yl)-2-oxoindolin-1-yl)-N-(2-methoxyethyl)-N-methylpyrazine-2-carboxamide]
451	Cc1ncc(-c2ccc3c(c2)N(c2cncc(C(=O)NCC(F)(F)F)n2)C(=O)C3(C)C)cn1 [Example 8, 6-(3,3-Dimethyl-6-(2-methylpyrimidin-5-yl)-2-oxoindolin-1-yl)-N-(2,2,2-trifluoroethyl)pyrazine-2-carboxamide]
30	Cc1ncc(-c2ccc3c(c2)N(c2cncc(C(=O)NCCO)n2)C(=O)C3(C)C)cn1 [Example 6, 6-(3,3-Dimethyl-6-(2-methylpyrimidin-5-yl)-2-oxoindolin-1-yl)-N-(2-hydroxyethyl)pyrazine-2-carboxamide]
534	CNC(=O)c1cc(N2C(=O)C(C)(C)c3ccc(-c4cnc(C)nc4)cc32)ccn1 [Example 35, 4-(3,3-Dimethyl-6-(2-methylpyrimidin-5-yl)-2-oxoindolin-1-yl)-N-methylpicolinamide]
21	CNC(=O)c1nc(N2C(=O)C(C)(C)c3ccc(-c4cnc(C)nc4)cc32)cn1C [Example 45, 4-(3,3-Dimethyl-6-(2-methylpyrimidin-5-yl)-2-oxoindolin-1-yl)-N,1-dimethyl-1H-imidazole-2-carboxamide]
413	5-(3,3-Dimethyl-6-(2-methylpyrimidin-5-yl)-2-oxoindolin-1-yl)-N,2-dimethylnicotinamide [Example 41]
19.5	Cc1ncc(-c2ccc3c(c2)N(c2cncc(C(=O)N(C)C)n2)C(=O)C3(C)C)cn1 [Example 1, 6-(3,3-Dimethyl-6-(2-methylpyrimidin-5-yl)-2-oxoindolin-1-yl)-N,N-dimethylpyrazine-2-carboxamide]
537	Cc1ncc(-c2ccc3c(c2)N(c2nccc(C(=O)N(C)C)n2)C(=O)C3(C)C)cn1 [Example 17, 2-(3,3-Dimethyl-6-(2-methylpyrimidin-5-yl)-2-oxoindolin-1-yl)-N,N-dimethylpyrimidine-4-carboxamide]

IC50 [nM]	Molecule
120	CNC(=O)c1nccc(N2C(=O)C(C)(C)c3ccc(-c4cnc(C)nc4)cc32)n1 [Example 20, 4-(3,3-Dimethyl-6-(2-methylpyrimidin-5-yl)-2-oxoindolin-1-yl)-N-methylpyrimidine-2-carboxamide]
351	Cc1ncc(-c2ccc3c(c2)N(c2ccc(C)c(C(=O)N(C)C)n2)C(=O)C3(C)C)cn1 [Example 28, 6-(3,3-Dimethyl-6-(2-methylpyrimidin-5-yl)-2-oxoindolin-1-yl)-N,N,3-trimethylpicolinamide]
196	Cc1ncc(-c2ccc3c(c2)N(c2cncc(C(=O)NC(C)C)n2)C(=O)C3(C)C)cn1 [Example 9, 6-(3,3-Dimethyl-6-(2-methylpyrimidin-5-yl)-2-oxoindolin-1-yl)-N-isopropylpyrazine-2-carboxamide]
559	CNC(=O)c1cncc(N2C(=O)C(C)(C)c3ccc(-c4cnc(C)nc4)cc32)c1 [Example 33, 5-(3,3-Dimethyl-6-(2-methylpyrimidin-5-yl)-2-oxoindolin-1-yl)-N-methylnicotinamide]
31.4	Cc1ncc(-c2ccc3c(c2)N(c2cncc(C(=O)N4CCC4)n2)C(=O)C3(C)C)cn1 [Example 3, 1-(6-(Azetidine-1-carbonyl)pyrazin-2-yl)-3,3-dimethyl-6-(2-methylpyrimidin-5-yl)indolin-2-one]
391	Cc1ncc(-c2ccc3c(c2)N(c2cnc(C(N)=O)cn2)C(=O)C3(C)C)cn1 [Example 15, 5-(3,3-Dimethyl-6-(2-methylpyrimidin-5-yl)-2-oxoindolin-1-yl)pyrazine-2-carboxamide]
78.4	CNC(=O)c1nc(N2C(=O)C(C)(C)c3ccc(-c4cnc(C)nc4)cc32)ncc1C [Example 18, 2-(3,3-Dimethyl-6-(2-methylpyrimidin-5-yl)-2-oxoindolin-1-yl)-N,5-dimethylpyrimidine-4-carboxamide]
767	Cc1ncc(-c2ccc3c(c2)N(c2cnc(C(=O)N4CCC4)cn2)C(=O)C3(C)C)cn1 [Example 13, 1-(5-(Azetidine-1-carbonyl)pyrazin-2-yl)-3,3-dimethyl-6-(2-methylpyrimidin-5-yl)indolin-2-one]
725	Cc1ncc(-c2ccc3c(c2)N(c2ccnc(C(=O)N(C)C)n2)C(=O)C3(C)C)cn1 [Example 19, 4-(3,3-Dimethyl-6-(2-methylpyrimidin-5-yl)-2-oxoindolin-1-yl)-N,N-dimethylpyrimidine-2-carboxamide]
323	Cc1ncc(-c2ccc3c(c2)N(c2cncc(C(=O)NC4CC(F)(F)C4)n2)C(=O)C3(C)C)cn1 [Example 40, N-(3,3-Difluorocyclobutyl)-6-(3,3-dimethyl-6-(2-methylpyrimidin-5-yl)-2-oxoindolin-1-yl)pyrazine-2-carboxamide]
1140	CNC(=O)c1cc(N2C(=O)C(C)(C)c3ccc(-c4cnc(C)nc4)cc32)cc(C)n1 [Example 34, 4-(3,3-Dimethyl-6-(2-methylpyrimidin-5-yl)-2-oxoindolin-1-yl)-N,6-dimethylpicolinamide]
197	Cc1ncc(-c2ccc3c(c2)N(c2cncc(C(N)=O)n2)C(=O)C3(C)C)cn1 [Example 10, 6-(3,3-Dimethyl-6-(2-methylpyrimidin-5-yl)-2-oxoindolin-1-yl)pyrazine-2-carboxamide]
374	Cc1ncc(-c2ccc3c(c2)N(c2cccc(C(=O)N(C)C)n2)C(=O)C3(C)C)cn1 [Example 23, 6-(3,3-Dimethyl-6-(2-methylpyrimidin-5-yl)-2-oxoindolin-1-yl)-N,N-dimethylpicolinamide]
927	Cc1ncc(-c2ccc3c(c2)N(c2cnc(C(=O)N(C)C(C)(C)C)cn2)C(=O)C3(C)C)cn1 [Example 12, N-(tert-Butyl)-5-(3,3-dimethyl-6-(2-methylpyrimidin-5-yl)-2-oxoindolin-1-yl)-N-methylpyrazine-2-carboxamide]
239	Cc1ncc(-c2ccc3c(c2)N(c2ccc4c(n2)C(=O)NC4(C)C)C(=O)C3(C)C)cn1 [Example 38, 2-(3,3-Dimethyl-6-(2-methylpyrimidin-5-yl)-2-oxoindolin-1-yl)-5,5-dimethyl-5H-pyrrolo[3,4-b]pyridin-7(6H)-one]
